{"source": "patent US8361780B2", "about": "“Biological system and assay for identifying modulators of tubulin ligases” (University of Georgia Research Foundation, Inc., priority 2005, dated 2013)", "key": {"zebrafish embryos [1]": {"tested_on": "zebrafish embryos", "experiment": "Tubulin monoglycylation in cilia of zebrafish embryos (TAP952 immunofluorescence)", "assay_type": "in vivo", "settings": "72 hpf; TTLL3-ATG MO 1 ng, TTLL3-SP MO 3 ng", "description": "(§1) MO Knockdowns in Zebrafish Embryos. TTLL3-ATG MO (5′ […] 3′; SEQ ID NO:129) and TTLL3-SP MO (5′ […] 3; SEQ ID NO:130) were obtained from Open Biosystems (Huntsville, AL). TTLL3-ATG targets the translation initiation site of ttll3 mRNA. TTLL3-SP is predicted to prevent splicing of exon 11 and cause a frame shift in exon 12. This would eliminate the coding sequence downstream of exon 10, which includes a conserved catalytic domain-encoding region. To evaluate the effect of TTLL3-SP on ttll3 mRNA, total RNA was isolated with TRIzol reagent (Invitrogen, Inc., Carlsbad, Calif.) from embryos at 7 hpf: 50 uninjected control embryos, 40 embryos injected with 3 ng TTLL3-SP MO, or 30 embryos injected with 5 ng TTLL3-SP MO. Total RNA ([…]) was used as a template for cDNA synthesis with random hexamers and oligo-dT primers and the iScript TM cDNA synthesis kit (Bio-Rad Laboratories, Hercules, Calif.). cDNA ([…]) was amplified with the following primers spanning exon 11: TTLL3-splice F, 5′-[…]-3′ (exon 10; SEQ ID NO:131); TTLL3-splice R, 5′-[…]-3′ (exon 12; SEQ ID NO:132). As expected, primers flanking exon 11 produced a shorter product in RT-PCR from embryos injected with TTLL3-SP than in controls (FIG. 50D). […] As a negative control, we injected 25 base MOs with a random base mixture at each position (Gene Tools, Inc., Philomath, Oreg.).\n(§2) Microscopy of Zebrafish. For whole-mount, in situ hybridization, embryos were fixed as previously described (Hagos and Dougan, 2007), stored in 100% methanol at −20° C., and stained with spaw, lefty1, lefty2, and cmlc2 probes (Yelon, 2001). Embryos were photographed under differential interference contrast with a Zeiss Axioplan 2 microscope with Slidebook (Intelligent Imaging Innovations, Denver, Colo.). For immunofluorescence, the embryos were manually dechorionated and fixed with 0.5% Triton X-100 and 4% paraformaldehyde in PBT (0.1% Tween-20 in PBS) at 4° C. overnight. After washing with PBT, embryos were dehydrated in methanol/PBT series and incubated overnight in 100% methanol at −20° C. After rehydration, embryos were blocked for 1-2 hr in 2% BSA, 0.5% normal goat serum,l%DMSO, 0.5% Triton X-100 in PBS, and incubated overnight at 4° C. with one of the following antibodies: 6-11 B-1 (1:1000); TAP952 (1:2000); AXO49 (1:2000); and GT335 (1:1000); polyE (1:500). After washing 3×10 min with 0.5% Triton X-100 in PBS, embryos were incubated overnight at 4° C. in anti-mouse-IgG-FITC or anti-rabbit-IgG-Cy3 (1:500; Zymed), washed (3×10 min), mounted in 100 mg/ml of DABCO (Sigma-Aldrich) in PBS, and examined on a Leica TCS SP confocal microscope."}, "zebrafish embryos [2]": {"tested_on": "zebrafish embryos", "experiment": "Morphology of zebrafish morphant embryos", "settings": "in vivo", "description": "as §1"}, "zebrafish embryos [3]": {"tested_on": "zebrafish embryos", "experiment": "Heart position in zebrafish embryos, scoring live embryos", "assay_type": "in vivo", "description": "as §1"}, "zebrafish embryos [4]": {"tested_on": "zebrafish embryos", "experiment": "Heart position in zebrafish embryos, in situ hybridization", "assay_type": "in vivo", "description": "as §1, §2"}, "zebrafish embryos [5]": {"tested_on": "zebrafish embryos", "experiment": "Expression pattern of lefty2 in zebrafish embryos (in situ hybridization)", "assay_type": "in vivo", "description": "as §1, §2"}, "zebrafish embryos [6]": {"tested_on": "zebrafish embryos", "experiment": "Expression pattern of southpaw in zebrafish embryos (in situ hybridization)", "assay_type": "in vivo", "description": "as §1, §2"}, "ttll3 mRNA": {"tested_on": "ttll3 mRNA", "experiment": "RT-PCR assay for TTLL3 mRNA in injected zebrafish embryos", "assay_type": "in vivo", "settings": "embryos at 7 hpf, 3 or 5 ng", "description": "as §1"}}, "data": [{"substance": "TTLL3-SP-MO: antisense morpholino 5′ GATGTACAGAGCTGAGATTGAAAAG 3; blocks splicing at the intron 10/exon 11 junction of ttll3 mRNA (all phosphorodiamidate morpholino (PMO))", "values": [{"measurement": "levels of tubulin monoglycylation/glycylation in cilia", "setting": "zebrafish embryos [1]", "result": "reduced"}, {"measurement": "hydrocephalic morphants", "setting": "zebrafish embryos [2]", "result": 81, "unit": "%"}, {"measurement": "morphant embryos with curly tail", "setting": "zebrafish embryos [2]", "result": 64.3, "unit": "%"}, {"measurement": "heart position left, number of embryos", "setting": "zebrafish embryos [3]", "result": 21}, {"measurement": "heart position left, percent of embryos", "setting": "zebrafish embryos [3]", "result": 64, "unit": "%"}, {"measurement": "heart position middle, number of embryos", "setting": "zebrafish embryos [3]", "result": 8}, {"measurement": "heart position middle, percent of embryos", "setting": "zebrafish embryos [3]", "result": 24, "unit": "%"}, {"measurement": "heart position right, number of embryos", "setting": "zebrafish embryos [3]", "result": 4}, {"measurement": "heart position right, percent of embryos", "setting": "zebrafish embryos [3]", "result": "(12%)"}, {"measurement": "heart position left, number of embryos", "setting": "zebrafish embryos [4]", "result": 23}, {"measurement": "heart position left, percent of embryos", "setting": "zebrafish embryos [4]", "result": 57.5, "unit": "%"}, {"measurement": "heart position middle, number of embryos", "setting": "zebrafish embryos [4]", "result": 6}, {"measurement": "heart position middle, percent of embryos", "setting": "zebrafish embryos [4]", "result": 15, "unit": "%"}, {"measurement": "heart position right, number of embryos", "setting": "zebrafish embryos [4]", "result": 11}, {"measurement": "heart position right, percent of embryos", "setting": "zebrafish embryos [4]", "result": "(27.5%)"}, {"measurement": "lefty2 expression: Bilatera or midline, number of embryos", "setting": "zebrafish embryos [5]", "result": 2}, {"measurement": "lefty2 expression: Bilatera or midline, percent of embryos", "setting": "zebrafish embryos [5]", "result": "(4.8%)"}, {"measurement": "lefty2 expression: No specific signal, number of embryos", "setting": "zebrafish embryos [5]", "result": 16}, {"measurement": "lefty2 expression: No specific signal, percent of embryos", "setting": "zebrafish embryos [5]", "result": "(38.1%)"}, {"measurement": "lefty2 expression: left, number of embryos", "setting": "zebrafish embryos [5]", "result": 21}, {"measurement": "lefty2 expression: left, percent of embryos", "setting": "zebrafish embryos [5]", "result": "(50%)"}, {"measurement": "lefty2 expression: right, number of embryos", "setting": "zebrafish embryos [5]", "result": 3}, {"measurement": "lefty2 expression: right, percent of embryos", "setting": "zebrafish embryos [5]", "result": "(7.1%)"}, {"measurement": "southpaw expression: Bilatera or midline, number of embryos", "setting": "zebrafish embryos [6]", "result": 22}, {"measurement": "southpaw expression: Bilatera or midline, percent of embryos", "setting": "zebrafish embryos [6]", "result": "(53.7%)"}, {"measurement": "southpaw expression: No specific signal, number of embryos", "setting": "zebrafish embryos [6]", "result": 6}, {"measurement": "southpaw expression: No specific signal, percent of embryos", "setting": "zebrafish embryos [6]", "result": "(14.6%)"}, {"measurement": "southpaw expression: left, number of embryos", "setting": "zebrafish embryos [6]", "result": 12}, {"measurement": "southpaw expression: left, percent of embryos", "setting": "zebrafish embryos [6]", "result": "(29.3%)"}, {"measurement": "southpaw expression: right, number of embryos", "setting": "zebrafish embryos [6]", "result": 1}, {"measurement": "southpaw expression: right, percent of embryos", "setting": "zebrafish embryos [6]", "result": "(2.4%)"}, {"measurement": "levels of endogenous TTLL3 mRNA", "setting": "ttll3 mRNA", "result": "dramatic reduction"}]}]}
